Here are results for two compounds from paper PMC6882824, “Engineering of chimeric peptides as antagonists for the G protein-coupled receptor, RXFP4” (Scientific Reports, 2019).

Molecules are shown by their SMILES. Entries after “also recorded” stand apart in the source; their conditions may differ. Where two headings read alike, the source gives them in different places. Bridge positions count the residues as written; N and C are the ends. Peptide text beside a SMILES is read from it. I, II: the chains in the order shown. Some results are limits rather than exact numbers.

In experiment [1] the target is T1, RXFP3 (Homo sapiens, UniProt Q9NSD7).
T1 construct: expressed in transfected cells; host or cells: CHO-K1 (ATCC), stably transfected
T1 sequence (Q9NSD7 1-469): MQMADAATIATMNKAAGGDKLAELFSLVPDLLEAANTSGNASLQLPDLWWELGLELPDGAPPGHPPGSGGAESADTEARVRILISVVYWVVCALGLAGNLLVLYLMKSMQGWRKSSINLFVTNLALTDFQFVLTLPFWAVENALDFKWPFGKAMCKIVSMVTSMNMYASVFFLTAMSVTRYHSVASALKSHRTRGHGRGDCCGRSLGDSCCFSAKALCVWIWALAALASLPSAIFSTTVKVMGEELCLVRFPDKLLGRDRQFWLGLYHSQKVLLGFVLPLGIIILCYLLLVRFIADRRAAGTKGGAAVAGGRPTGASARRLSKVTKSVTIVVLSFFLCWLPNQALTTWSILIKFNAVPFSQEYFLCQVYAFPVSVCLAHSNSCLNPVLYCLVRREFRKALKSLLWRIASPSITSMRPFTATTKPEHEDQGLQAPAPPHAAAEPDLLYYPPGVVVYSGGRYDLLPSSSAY
Put plainly: Competition binding in CHO-K1-RXFP3 cells (Eu-H3B1-22R). The procedure: (§1) Chinese hamster ovary CHO-K1 cells (sourced from American Type Culture Collection (ATCC), Maryland, USA) stably transfected with RXFP3[33] or RXFP4[9] were plated out onto precoated poly-L-lysine 96-well view plates at a density of 50 000 cells per well. Medium was aspirated off and the cells were washed with phosphate-buffered saline (PBS) before competition binding assays were performed with 5 nM Eu-H3B1–22R[34] (RXFP3 ligand) or 5 nM Eu-DTPA-mINSL5[9] (RXFP4 ligand) as previously described. Competition binding curves were performed in triplicate and each experiment was performed independently at least three times. Fluorescent measurements were carried out on a BMG POLARstar plate reader (BMG Labtech, Melbourne, Australia. Pooled data are presented as mean ± S.E of specific binding and are fitted using one-site binding curve in GraphPad Prism version 8 (GraphPad Inc., San Diego, USA). Statistical analyses were conducted using one-way analysis of variance with uncorrected Fisher’s least significant difference (LSD) post-hoc analysis in GraphPad Prism version 8.

Experiment [2] deals with T1, RXFP3. Nature of the experiment: cAMP agonist assay (inhibition of forskolin-induced cAMP, pCRE β-galactosidase reporter) in CHO-K1-RXFP3 cells. In kind it is cell-based. As to conditions: CHO-K1-RXFP3 cells, inhibition of 5 µM forskolin-induced cAMP, 6 hours; mean ± SEM, n in cell. The procedure:
(§2) The peptides were tested for their ability to inhibit forskolin induced cAMP activity in CHO-K1-RXFP3 or CHO-K1-RXFP4 cells transfected with a pCRE (cAMP Response Element) β-galactosidase reporter plasmid as previously described[9],[34]. For agonist assays cells were stimulated with forskolin (5 µM for RXFP3, 1 µM for RXFP4) plus or minus increasing concentrations of each peptide for 6 hours. For antagonist assays cells were stimulated with forskolin as in agonist assays plus increasing concentrations of each peptide for 10 minutes followed by stimulation with agonist at an ~EC80 concentration for a further 6 hours (10 nM Analogue 2 for RXFP3 and 16.6 nM Analogue 13 for RXFP4). Each peptide was tested in triplicate and each experiment was performed independently at least three times. Agonist data was expressed as the % Forskolin activity whereby 100% was defined as Forskolin alone and 0% as maximum agonist stimulation (1 µM Analogue 2 for RXFP3 and 1 µM Analogue 13 for RXFP4). […] Data were analysed and plotted using GraphPad PRISM 8 and are expressed as the mean ± SEM of the pooled data. Statistical analysis was conducted using one-way ANOVA with Uncorrected Fisher’s LSD post-hoc analysis in GraphPad Prism version 8.

The target in experiment [3] is T1, RXFP3. Put plainly: cAMP antagonist assay against 10 nM analogue 2 in CHO-K1-RXFP3 cells. The settings on record: for Emax: SEM, read-out: RXFP3 Emax (antagonist efficacy). In kind it is cell-based. The procedure: as §2
For experiment [4], the target named is T2, RXFP4 (Homo sapiens, UniProt Q8TDU9). Put plainly: Competition binding in CHO-K1-RXFP4 cells (Eu-DTPA-mINSL5). Details: expressed in transfected cells; host or cells: CHO-K1 (ATCC), stably transfected. The procedure:
as §1

The target in experiment [5] is T2, RXFP4. Put plainly: cAMP agonist assay (inhibition of forskolin-induced cAMP, pCRE β-galactosidase reporter) in CHO-K1-RXFP4 cells. Format: cell-based. The settings on record: CHO-K1-RXFP4 cells, inhibition of 1 µM forskolin-induced cAMP, 6 hours; mean ± SEM, n in cell. Set-up: expressed in transfected cells; host or cells: CHO-K1 (ATCC), stably transfected. The procedure: as §2

Experiment [6] has as its target T2, RXFP4. Put plainly: cAMP antagonist assay against 16.6 nM analogue 13 in CHO-K1-RXFP4 cells. Format: cell-based. Set-up: expressed in transfected cells; host or cells: CHO-K1 (ATCC), stably transfected. As to conditions: for Emax: SEM, read-out: RXFP4 Emax (antagonist efficacy). As to the method: as §2
For experiment [7], the system named is RXFP3. As to conditions: SK-N-MC/CRE-β-gal cells expressing human RXFP3; cited from earlier work. The text has this:
Here we have chemically synthesized and pharmacologically characterized ΔR3/I5 for binding and cAMP potency in CHO cells stably expressing RXFP3 (CHO-RXFP3) or RXFP4 (CHO-RXFP4).

Experiment [8] addresses T1, RXFP3. As to conditions: cited from earlier work.
Experiment [9] relates to RXFP3. As to conditions: HEK-293s cells expressing rat and human RXFP3; cited from earlier work.
The target in experiment [10] is T1, RXFP3. The settings on record: CRE-reporter gene assay; cited from earlier work.
In experiment [11] the target is T2, RXFP4. Set-up: expressed in transfected cells; method as in PMID 17606621. As to conditions: SK-N-MC/CRE-β-gal cells expressing human RXFP4; cited from earlier work.

T2 sequence (Q8TDU9 whole entry): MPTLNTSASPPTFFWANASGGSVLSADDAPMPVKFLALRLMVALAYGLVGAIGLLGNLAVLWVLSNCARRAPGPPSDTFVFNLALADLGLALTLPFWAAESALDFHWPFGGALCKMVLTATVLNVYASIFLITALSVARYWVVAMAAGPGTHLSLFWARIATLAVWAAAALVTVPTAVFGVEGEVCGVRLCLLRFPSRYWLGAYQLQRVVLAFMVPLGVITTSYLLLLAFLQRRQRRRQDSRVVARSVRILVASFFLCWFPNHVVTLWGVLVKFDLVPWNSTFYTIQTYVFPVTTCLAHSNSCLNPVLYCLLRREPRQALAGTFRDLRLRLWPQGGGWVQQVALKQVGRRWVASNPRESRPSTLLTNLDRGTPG

For `CC[C@H](C)[C@@H]1NC(=O)[C@H](Cc2ccccc2)NC(=O)[C@H](CCC(=O)O)NC(=O)[C@H](CCCNC(=N)N)NC(=O)CNC(=O)[C@@H](NC(=O)[C@H](CC(C)C)NC(=O)[C@H](CCCNC(=N)N)NC(=O)[C@@H](NC(=O)CNC(=O)[C@H](Cc2ccc(O)cc2)NC(=O)[C@H](CCCCN)NC(=O)[C@H](C)NC(=O)[C@H](C)NC(=O)[C@@H](N)CCCNC(=N)N)C(C)C)CSSC[C@H](N)C(=O)N[C@@H]([C@@H](C)O)C(=O)N[C@@H](CC(=O)O)C(=O)NCC(=O)N[C@@H](C)C(=O)N[C@@H](CO)C(=O)N[C@@H](CCSC)C(=O)N[C@@H](CCCCN)C(=O)N[C@@H](CC(=O)O)C(=O)N[C@@H](CC(C)C)C(=O)N[C@@H](CO)C(=O)N[C@@H](C)C(=O)N[C@@H](CC(C)C)C(=O)N[C@H](C(=O)O)CSSC[C@@H](C(=O)N[C@@H](CCCNC(=N)N)C(=O)O)NC(=O)[C@H]([C@@H](C)O)NC(=O)[C@H](Cc2ccccc2)NC(=O)[C@H]([C@@H](C)CC)NC(=O)[C@H](C(C)C)NC(=O)[C@H](C)NC(=O)[C@H](CCCNC(=N)N)NC1=O` [Analogue 19] (I: H-RAAKYGVRLCGREFIRAVIFTCR-OH / II: H-CTDGASMKDLSALC-OH; disulfide I:10-II:1, I:22-II:14; N-terminus assumed), the Ki at RXFP3 [1] (CHO-K1 cells stably transfected with RXFP3, competition with 5 nM Eu-H3B1-22R, read-out: RXFP3 Binding Ki) was found to be 7.94 nM; on RXFP4 [4] (CHO-K1 cells stably transfected with RXFP4, competition with 5 nM Eu-DTPA-mINSL5, read-out: RXFP4 Binding Ki), 10.2 nM. For the same compound, at RXFP3 [2], the “RXFP3 Activity pEC50” value is “No activity (3)”. Also, the IC50 at RXFP3 [3] (CHO-K1-RXFP3 cells, peptide 10 minutes, then 10 nM analogue 2 for 6 hours, 5 µM forskolin, mean ± SEM, read-out: RXFP3 Antagonist potency pIC50 (converted)) is over 10000 nM; on RXFP4 [6] (CHO-K1-RXFP4 cells, block of 16.6 nM analogue 13, read-out: RXFP4 Antagonist potency IC50), 79.4 nM. For the same compound, the results for the Emax at RXFP3 [3] and at RXFP4 [6] were 76.3 ± 1.8% and 71.3 ± 4.8%, respectively. Further, the “RXFP4 Activity pEC50” value at RXFP4 [5] is recorded as “Weak partial agonist (4)”.

Turning to `CC[C@H](C)[C@@H]1NC(=O)[C@H](Cc2ccccc2)NC(=O)[C@H](CCC(=O)O)NC(=O)[C@H](CCCNC(=N)N)NC(=O)CNC(=O)[C@@H](NC(=O)[C@H](CC(C)C)NC(=O)[C@H](CCCNC(=N)N)NC(=O)[C@@H](NC(=O)CNC(=O)[C@H](Cc2ccc(O)cc2)NC(=O)[C@@H]2CCCN2C(=O)[C@H](C)NC(=O)[C@H](C)NC(=O)[C@@H](N)CCCNC(=N)N)C(C)C)CSSC[C@@H]2NC(=O)[C@@H](NC(=O)[C@H](CC(C)C)NC(=O)[C@@H](NC(=O)[C@H](CCC(N)=O)NC(=O)[C@H](CC(C)C)NC(=O)[C@H](CC(=O)O)NC(=O)[C@@H]3CCC(=O)N3)[C@@H](C)O)CSSC[C@H](NC(=O)CNC(=O)[C@H](CC(=O)O)NC(=O)[C@H]([C@@H](C)O)NC2=O)C(=O)N[C@@H](CO)C(=O)N[C@@H](CCSC)C(=O)N[C@@H]([C@@H](C)O)C(=O)N[C@@H](CC(=O)O)C(=O)N[C@@H](CC(C)C)C(=O)N[C@@H](CO)C(=O)N[C@@H](C)C(=O)N[C@@H](CC(C)C)C(=O)N[C@H](C(=O)O)CSSC[C@@H](C(=O)N[C@@H](CCCNC(=N)N)C(=O)O)NC(=O)[C@H]([C@@H](C)O)NC(=O)[C@H](Cc2ccccc2)NC(=O)[C@H]([C@@H](C)CC)NC(=O)[C@H](C(C)C)NC(=O)[C@H](C)NC(=O)[C@H](CCCNC(=N)N)NC1=O` [ΔR3/I5, reference compound], the results for the Ki at RXFP3 [1] (SEM) and at RXFP4 [4] (SEM) were 9.77 nM and 4.57 nM, respectively. Besides, the “RXFP3 Activity pEC50” value on RXFP3 [2] is given as “unable to activate RXFP3; also recorded: No activity (3)”. In addition, the IC50 worked out at 117 nM against RXFP3 [3] and 17.4 nM on RXFP4 [6]. Also, the Emax on RXFP3 [3] was 100 ± 3.8%; at RXFP4 [6], 36.7 ± 7.4%. Also, in the experiment with RXFP3 [7], the “Agonist activity at RXFP3 (original report)” value is “no agonist activity”. Besides, the “Agonism of p38MAPK, ERK1/2 and cAMP signalling at RXFP3” value on RXFP3 [8] is “weak partial agonist”. Further, the “Agonism in [35S]-GTPγS binding, cAMP activation and dynamic mass redistribution” value in the experiment on RXFP3 [9] is “partial agonist”. The “Agonist activity in CHO-RXFP3 cells” value on RXFP3 [10] was “no agonist activity”. Moreover, the “Agonist activity at RXFP4 (original report)” value on RXFP4 [11] is recorded as “no agonist activity”. Moreover, on RXFP4 [5], the “RXFP4 Activity pEC50” value is recorded as “Weak partial agonist (5)”.

The Ki is the dissociation constant of the complex between target and ligand, obtained from inhibition or displacement. As usually defined, the Emax is the greatest response seen or fitted, relative to the assay's reference.
